In brackets after ≈: the same amount, converted by molar mass.
Key:
[1] = test system: PC 12 cell line; test: Cytotoxicity assay (CCK-8) on PC 12; format: cell-based, rat; settings: 20 μM
Procedure: RAW264.7 cells were cultured in 96-well plates at a density of 3 × 10^4 cells/mL in Dulbecco’s modified Eagle’s medium (DMEM, Gibco, Baltimore, MD, USA) with 10% fetal calf serum (Gibco, Baltimore, MD, USA), 100 U/mL penicillin, and 100 μg/mL streptomycin. Plates were incubated in an atmosphere containing 5% CO2 at […]. PC 12 cells were cultured in 96-well plates at a density of 8000 cells/mL in Dulbecco’s modified Eagle’s medium (DMEM, Gibco, Baltimore, MD, USA) with 10% fetal calf serum (Gibco, Baltimore, MD, USA), 100 U/mL penicillin, and 100 μg/mL streptomycin. Plates were incubated in an atmosphere containing 5% CO2 at 37 °C. Cells were treated with different concentrations of test compounds for 48 h. Then, 10 μL CCK-8 solution were added to all the wells. After 4 h incubation, the absorbance at 450 nm of each well was measured in a multiscan photometer.

[2] = test system: LPS-stimulated RAW264.7 cell lines; test: LPS-induced NO production (Griess) in RAW264.7; format: cell-based, murine; settings: for inhibitory activity against NO production compared with curcumin: 10 μM; for The production of NO: LPS group 49.86 ± 0.62, control 1.20 ± 0.38
Procedure: RAW 264.7 cells were plated in 96-well plates at a density of 1 × 10^4 cells/well and incubated overnight at 37 °C under 5% CO2. […] Dexamethasone (Solarbio, D8040, Beijing, China) was used as the positive control. Then, 24 h later, NO production was determined by measuring the nitrite content using Griess reagents. Fifty microliters of culture supernatants were transferred to 96-well plates and mixed with 50 μL Griess reagent A. After incubation at room temperature for 5 min, the samples were mixed with an equal volume Griess reagent B for another 5 min. The absorbance of each mixture at 540 nm was measured using a microplate reader.

[3] = test system: H2O2-stimulated PC 12 cell lines; test: Protection against H2O2-induced oxidative damage (CCK-8); format: cell-based, rat; settings: for Cell viability / viability at 5 µM / viability at 10 µM / viability at 20 µM: H2O2-induced oxidative damage, PC 12, H2O2 group 49.69 ± 1.37, control 100; for Cell viability: in % (unit assumed); for cell survival rate (anti-oxidant) / anti-oxidant capacity compared with curcumin: H2O2-stimulated PC 12; for anti-oxidant capacity compared with curcumin: 10 μM; for viability at 5 µM / viability at 10 µM / viability at 20 µM: Rattus norvegicus; for viability at 5 µM: PC-12, Dose 5 μM; for viability at 10 µM: PC-12, Dose 10 μM; for viability at 20 µM: PC-12, Dose 20 μM
Procedure: PC 12 cells were seeded in 96-well plates at a density of 8000 cells/well and incubated overnight. […] After incubating under the same conditions for 24 h, 10 μL CCK-8 solution was added to each well. After 2 h incubation, the absorbance of each well was measured at 450 nm using a microplated reader (Multiskan MK-3, Thermo, Waltham, MA, USA).

[4] = test system: PC 12 cell lines; test: Radiation protection in vitro (CCK-8); format: cell-based, rat; settings: for radiation protection capacity: versus radiation group; for viability at 5 µM / viability at 10 µM / viability at 20 µM: Rattus norvegicus; for viability at 5 µM: PC-12, Dose 5 μM; for viability at 5 µM / viability at 10 µM / viability at 20 µM / Cell viability: radiation 8.0 Gy, PC 12, radiation group 50.22 ± 1.08; for viability at 10 µM: PC-12, Dose 10 μM; for viability at 20 µM: PC-12, Dose 20 μM; for cell survival rate (radiation protection): at 20 μM; for Cell viability: in % (unit assumed)
Procedure: The rat adrenal pheochromocytoma cells (PC 12) were used for in vitro studies. A Cell Counting Kit-8 (CCK-8, Applygen Technologies Co., Ltd., Beijing, China) assay was used to determine cell viability. […] Cells were irradiated with dose of 8.0 Gy at a dose rate of 0.8 Gy/min. Then, 10 μL CCK-8 solution was added to all the wells. After 4 h incubation, the absorbance at 450 nm of each well was measured in a multiscan photometer.

[5] = Aqueous solubility determination by UV spectrophotometer; format: physicochemical; settings: water, thermodynamic from solid, saturated solution concentration
Procedure: A UV spectrophotometer was used to test the aqueous solubility of target compounds. Each compound to be tested was prepared into solutions with concentrations of 0.2 M, 0.1 M, 0.05 M, 0.025 M, 0.0125 M, 0.00625 M, and 0.003125 M. The optical density (OD) values of the prepared solutions were measured using an ultraviolet spectrophotometer, and concentration–OD-value standard curves were drawn for each compound to be tested. The saturated solutions of the target compounds were diluted by 5000 times and detected using an ultraviolet spectrophotometer to measure the OD values, respectively. The measured OD values were substituted into the corresponding concentration-OD value standard curve to calculate the diluted concentrations, which were multiplied by 5000 to obtain the saturated solution concentrations of the target compounds.

[6] = Dose 5 μM, LPS-stimulated RAW264.7
[7] = Dose 10 μM, LPS-stimulated RAW264.7
[8] = Dose 15 μM, LPS-stimulated RAW264.7

Compound	effect on PC 12 cell proliferation [1]	inhibitory activity against NO production compared with curcumin [2]	The production of NO [2, 6]	The production of NO [2, 7]	The production of NO [2, 8]	Cell viability ([3]; Dose 5 μM)	Cell viability ([3]; Dose 10 μM)	Cell viability ([3]; Dose 20 μM)	radiation protection capacity ([4]; 10 μM)	viability at 5 µM [4] [%]	viability at 10 µM [4] [%]	viability at 20 µM [4] [%]	solubility [5] [mg/mL]	viability at 5 µM [3] [%]	viability at 10 µM [3] [%]	viability at 20 µM [3] [%]	Cell viability ([4]; Dose 5 μM)	Cell viability ([4]; Dose 10 μM)	Cell viability ([4]; Dose 20 μM)	further results
COc1cc(/C=C/C(=O)CC(=O)/C=C/c2ccc(OC)c(OC)c2OC)cc(CN(C)C)c1O [Compound 6a]	significant promoting effect	better inhibitory activity	27.02 ± 2.91	14.29 ± 1.71	5.23 ± 0.72	60.05 ± 5.39	76.41 ± 2.29	100.96 ± 1.07	a certain degree of radiation protection capacity	65.6 ± 2.17	71.7 ± 2.56	84.9 ± 6.57	112 (≈ 239 mM)	–	–	–	–	–	–	radiation protection capability compared with curcumin ([4]; 10 μM, irradiated PC 12): better radiation protection capability
COc1ccc(/C=C/C(=O)CC(=O)/C=C/c2cc(CN(C)C)c(O)c(OC)c2)cc1O [Compound 11]	significant promoting effect	–	35.85 ± 0.30	19.36 ± 1.66	7.59 ± 0.35	63.24 ± 1.07	72.52 ± 0.32	96.33 ± 1.04	a certain degree of radiation protection capacity	65.09 ± 0.4	84.5 ± 3.4	94.2 ± 4.35	–	–	–	–	–	–	–	cell survival rate (anti-oxidant) ([3]; at 20 μM): 96%; cell survival rate (radiation protection) ([4]; irradiated PC 12): 94%
COc1cc(/C=C/C(=O)CC(=O)/C=C/c2cc(C)c(O)c(C)c2)cc(CN(C)C)c1O [Compound 8a]	–	better inhibitory activity	35.08 ± 2.53	16.57 ± 1.70	4.61 ± 0.29	74.54 ± 1.42	81.49 ± 3.47	87.62 ± 2.98	a certain degree of radiation protection capacity	60.3 ± 1.38	62.2 ± 0.75	81.9 ± 2.94	118 (≈ 279 mM)	–	–	–	–	–	–	anti-oxidant capacity compared with curcumin [3]: better anti-oxidant capacity
COc1ccc(/C=C/C(=O)CC(=O)/C=C/c2cc(CN(C)C)c(O)c(OC)c2)cc1OC [Compound 5]	significant promoting effect	–	34.62 ± 0.76	16.89 ± 1.33	9.97 ± 1.11	–	–	–	a certain degree of radiation protection capacity	–	–	–	–	71.02 ± 0.56	84.4 ± 1.86	103 ± 3.36	58.70 ± 4.93	64.93 ± 4.67	104.23 ± 2.86	anti-oxidant capacity compared with curcumin [3]: better anti-oxidant capacity
COc1cc(O)ccc1/C=C/C(=O)CC(=O)/C=C/c1cc(CN(C)C)c(O)c(OC)c1 [Compound 9a]	–	–	36.91 ± 0.59	21.33 ± 0.19	11.29 ± 0.25	63.56 ± 2.88	70.76 ± 3.98	81.08 ± 2.61	–	56.9 ± 1.03	60.9 ± 1.55	70.2 ± 2.99	167 (≈ 393 mM)	–	–	–	–	–	–	–
CCOc1cc(/C=C/C(=O)CC(=O)/C=C/c2cc(CN(C)C)c(O)c(OC)c2)ccc1O [Compound 1]	significant promoting effect	–	44.55 ± 0.55	34.25 ± 0.96	12.30 ± 0.90	–	–	–	a certain degree of radiation protection capacity	–	–	89.7 ± 8.17	–	63.9 ± 2.86	74.7 ± 4.82	86.4 ± 3.89	47.61 ± 1.20	57.30 ± 1.29	–	–
COc1ccc(/C=C/C(=O)CC(=O)/C=C/c2cc(CN(C)C)c(O)c(OC)c2)cc1O [Compound 11a]	–	better inhibitory activity	35.82 ± 1.34	15.68 ± 3.02	4.63 ± 0.40	–	–	–	a certain degree of radiation protection capacity	–	–	–	132 (≈ 311 mM)	61.5 ± 1.46	73.7 ± 3.89	97.3 ± 1.95	60.93 ± 1.64	64.92 ± 0.58	106.32 ± 7.58	cell survival rate (radiation protection) ([4]; irradiated PC 12): 106%
COc1cc(/C=C/C(=O)CC(=O)/C=C/c2ccc(O)c(Cl)c2)cc(CN(C)C)c1O [Compound 7a]	–	better inhibitory activity	35.35 ± 1.59	16.83 ± 0.42	9.77 ± 0.63	54.89 ± 1.04	62.07 ± 4.16	79.65 ± 3.04	–	62.1 ± 1.39	65.5 ± 2.03	75.7 ± 2.05	258 (≈ 600 mM)	–	–	–	–	–	–	cell survival rate (anti-oxidant) ([3]; at 10 μM): 62%
COc1cc(/C=C/C(=O)CC(=O)/C=C/c2ccc(O)cc2)cc(CN(C)C)c1O [Compound 10a]	–	better inhibitory activity	24.20 ± 1.36	7.81 ± 0.85	3.91 ± 0.22	–	–	–	–	–	–	–	335 (≈ 848 mM)	54.9 ± 1.34	64.7 ± 2	84 ± 4.36	61.98 ± 2.45	67.94 ± 4.69	81.14 ± 3.72	inhibition at 15 µM ([2]; Mus musculus, at 15 μM, LPS-stimulated RAW264.7, read-out: inhibition rate on NO release): 92%; cell survival rate (anti-oxidant) ([3]; at 10 μM): 64%

— article PMC11085442 (Molecules, 2024)
